Here are results for one compound from patent US8252832B2, “Kinesin inhibitors as cancer therapeutics” (Novartis AG, priority 2007, dated 2012).

Usually GI50 stands for the concentration that inhibits growth by half.

Where two headings read alike, the source gives them in different places.

What all share (assay type): cell-based
Assay [1] has as its system panel of cell lines derived from solid tumors. The assay can be described thus: Solid tumor cell line panel, fraction of surviving cells after 72 hours. How it is done: Compound IIa was tested against a panel of cell lines derived from solid tumors as described in See also McDermott, U., Sharma, S. V., Dowell, L., Greninger, P., Montagut, C., Lamb, J., Archibald, H., Raudales, R., Tam, A., Lee, D., Rothenberg, S. M., Supko, J. G., Sordella, R., Ulkus, L. E., Iafrate, A. J., Maheswaran, S., Njauw, C. N., Tsao, H., Drew, L., Hanke, J. H., Ma, X. J., Erlander, M. G., Gray, N. S., Haber, D. A., and Settleman, J. (2007), Identification of genotype-correlated sensitivity to selective kinase inhibitors by using high-throughput tumor cell line profiling. Proc. Natl. Acad. Sci. U.S. A 104, 19936-19941 (2007).) Cells were treated with the compound for 72 hours and the fraction of surviving cells, as compared to an untreated control, was reported. Table 17 lists the name of the cell line, the organ of origin, the fraction of surviving cells at the three concentrations tested (0.2 nM, 2.0 nM and 20 nM) and a sensitivity score. The sensitivity score was from 5 (most sensitive) to 1 (least sensitive) and the scoring was as follows: 5=surviving fraction≦0.2 at 0.2 nM; 4=0.2<surviving fraction≦0.5 at 0.2 nM; 3=surviving fraction>0.5 at 0.2 nM and ≦0.5 at 2.0 nM; 2=surviving fraction>0.5 at 2.0 nM and ≦0.5 at 20 nM; 1=surviving fraction>0.5 at 20 nM.

A further assay relates to EKVX. The experiment in a line: CellTiter-Glo, NCI60 panel. The following applies: NSCL; for GI50: Homo sapiens. In short, it runs like this: (§1)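 Luciferase-based ATP read-out (CellTiter-Glo) as a measure of viable cell number. Adherent lines were plated and left 24 h before dosing, non-adherent lines dosed at once. Treatment ran 48 h at 37° C. The value is the concentration giving 50% reduction in growth.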
(ATP-based viability assays read luminescence as a measure of living cells.)

In another assay the test system is CCRF-CEM. The assay can be described thus: CellTiter-Glo, NCI60 panel. Conditions: Leukemia; for GI50: Homo sapiens. In short, it runs like this:
as §1

For the next assay, the system named is MALME-3M. The experiment in a line: CellTiter-Glo, NCI60 panel. The following applies: Melanoma; for GI50: Homo sapiens. In short, it runs like this:
as §1

The mark [2] stands for this setting: GI50 in nM, read-out: Log(GI50) (converted).

As for `CC(C)(C)[C@H](c1nc(-c2cc(F)ccc2F)cn1Cc1ccccc1)N(CC[C@H](N)CF)C(=O)CO` [Compound IIa], the average sensitivity score in assay [1] (brain) was 3.21; in assay [1] (cervix) it was 3.00; in assay [1] (ovary), 3.38; in assay [1] (skin), 3.02; in assay [1] (stomach), 3.32; in assay [1] (thyroid) it was 3.00. Further, the GI50 was 10 nM in the assay on EKVX (setting [2]); 10 nM with EKVX (read-out: GI50); 0.215 nM in the assay with CCRF-CEM (setting [2]); 0.215 nM in the assay with CCRF-CEM (read-out: GI50); 10 nM in the assay with MALME-3M (setting [2]); 10 nM with MALME-3M (read-out: GI50). Also, the “Differential vs mean Log(GI50)” value with EKVX was −0.669; with CCRF-CEM, 0.999; in the assay on MALME-3M, −0.669.
